Measurements taken from ChEMBL document CHEMBL6114951, “Discovery of 3-amide-pyrimidine-based derivatives as potential fms-like tyrosine receptor kinase 3 (FLT3) inhibitors for treating acute myelogenous leukemia” (Bioorg Med Chem Lett, 2025).
Calls of active or inactive are those of the source. The rule behind the calls is not given here.

How the values were obtained:
[1] = system: MV4-11; experiment: cells; details: Homo sapiens
Description: Antiproliferative activity against human MV4-11 cells by CCK-8 assay

[2] = system: A549; experiment: cells; details: Homo sapiens
Description: Antiproliferative activity against human A549 cells by CCK-8 assay

[3] = system: HCT-116; experiment: cells; details: Homo sapiens
Description: Antiproliferative activity against human HCT-116 cells by CCK-8 assay

[4] = system: MV4-11; experiment: Cell cycle arrest in human MV4-11 cells assessed as accumulation at G1-phase at 0.2 uM measured after 24 hrs by propidium iodide staining based flow cytometry (reference value: 70.31%); assay type: functional
[5] = system: MV4-11; experiment: Cell cycle arrest in human MV4-11 cells assessed as accumulation at G2-phase at 0.2 uM measured after 24 hrs by propidium iodide staining based flow cytometry (reference value: 8.87%); assay type: functional
[6] = system: MV4-11; experiment: Cell cycle arrest in human MV4-11 cells assessed as accumulation at S-phase at 0.2 uM measured after 24 hrs by propidium iodide staining based flow cytometry (reference value: 20.83%); assay type: functional
[7] = system: MV4-11; experiment: Induction of apoptosis in human MV4-11 cells assessed as viable cells at 0.2 uM measured after 24 hrs by Annexin V-FITC/propidium iodide staining based flow cytometry (reference value: 92.7%); assay type: functional; details: read-out: Activity
[8] = system: MV4-11; experiment: Induction of apoptosis in human MV4-11 cells assessed as early apoptotic cells at 0.2 uM measured after 24 hrs by Annexin V-FITC/propidium iodide staining based flow cytometry (reference value: 5.2%); assay type: functional
[9] = system: MV4-11; experiment: Induction of apoptosis in human MV4-11 cells assessed as late apoptotic cells at 0.2 uM measured after 24 hrs by Annexin V-FITC/propidium iodide staining based flow cytometry (reference value: 2%); assay type: functional
[10] = system: MV4-11; experiment: Induction of apoptosis in human MV4-11 cells assessed as necrotic cells at 0.2 uM measured after 24 hrs by Annexin V-FITC/propidium iodide staining based flow cytometry (reference value: 0.2%); assay type: functional
[11] = system: MV4-11; experiment: Induction of mitochondrial membrane potential loss in human MV4-11 cells assessed as cells with high MMP (aggregates) at 0.2 uM measured after 24 hrs by JC-1 staining based flow cytometry (reference value: 97%); assay type: functional
[12] = system: MV4-11; experiment: Induction of mitochondrial membrane potential loss in human MV4-11 cells assessed as cells with low MMP (monomers) at 0.2 uM measured after 24 hrs by JC-1 staining based flow cytometry (reference value: 2.9%); assay type: functional
[13] = Effect on total FLT3 expression in human MV4-11 cells at 0.2 uM measured after 24 hrs by Western blot analysis; assay type: toxicity, cell-based; details: mv4-11, 24 h
[14] = Effect on total STAT5 expression in human MV4-11 cells at 0.2 uM measured after 24 hrs by Western blot analysis; assay type: toxicity, cell-based; details: mv4-11, 24 h
[15] = Effect on total ERK expression in human MV4-11 cells at 0.2 uM measured after 24 hrs by Western blot analysis; assay type: toxicity, cell-based; details: mv4-11, 24 h
[16] = Effect on total AKT expression in human MV4-11 cells at 0.2 uM measured after 24 hrs by Western blot analysis; assay type: toxicity, cell-based; details: mv4-11, 24 h
[17] = target: Mast/stem cell growth factor receptor Kit (Homo sapiens, UniProt P10721)
[18] = in vitro; details: human, HEK293T cells
Description: Cytotoxicity against HEK293T cells by CCK-8 assay

[19] = system: MV4-11; experiment: Cell cycle arrest in human MV4-11 cells assessed as increase in accumulation at G0/G1-phase measured after 24 hrs by propidium iodide staining based flow cytometry; assay type: functional; details: dose 0.2-10 µM
[20] = target: c-Kit (Homo sapiens, UniProt P10721); experiment: Inhibition of c-Kit (unknown origin) at 100 uM relative to control; assay type: toxicity
[21] = system: MV4-11; experiment: Cell cycle arrest in human MV4-11 cells assessed as accumulation at G1-phase at 2 uM measured after 24 hrs by propidium iodide staining based flow cytometry (reference value: 70.31%); assay type: functional
[22] = system: MV4-11; experiment: Cell cycle arrest in human MV4-11 cells assessed as accumulation at G2-phase at 2 uM measured after 24 hrs by propidium iodide staining based flow cytometry (reference value: 8.87%); assay type: functional
[23] = system: MV4-11; experiment: Cell cycle arrest in human MV4-11 cells assessed as accumulation at S-phase at 2 uM measured after 24 hrs by propidium iodide staining based flow cytometry (reference value: 20.83%); assay type: functional
[24] = system: MV4-11; experiment: Cell cycle arrest in human MV4-11 cells assessed as accumulation at G1-phase at 10 uM measured after 24 hrs by propidium iodide staining based flow cytometry (reference value: 70.31%); assay type: functional
[25] = system: MV4-11; experiment: Cell cycle arrest in human MV4-11 cells assessed as accumulation at G2-phase at 10 uM measured after 24 hrs by propidium iodide staining based flow cytometry (reference value: 8.87%); assay type: functional
[26] = system: MV4-11; experiment: Cell cycle arrest in human MV4-11 cells assessed as accumulation at S-phase at 10 uM measured after 24 hrs by propidium iodide staining based flow cytometry (reference value: 20.83%); assay type: functional
[27] = system: MV4-11; experiment: Induction of morphological changes in human MV4-11 cells assessed as cell wrinkling; assay type: functional, cell-based
[28] = system: MV4-11; experiment: Induction of morphological changes in human MV4-11 cells assessed as cell fragmentation; assay type: functional, cell-based
[29] = system: MV4-11; experiment: Induction of apoptosis in human MV4-11 cells measured after 24 hrs by Annexin V-FITC/propidium iodide staining based flow cytometry; assay type: functional, cell-based; details: dose 0.2-5 µM
[30] = system: MV4-11; experiment: Induction of apoptosis in human MV4-11 cells assessed as viable cells at 2 uM measured after 24 hrs by Annexin V-FITC/propidium iodide staining based flow cytometry (reference value: 92.7%); assay type: functional; details: read-out: Activity
[31] = system: MV4-11; experiment: Induction of apoptosis in human MV4-11 cells assessed as viable cells at 5 uM measured after 24 hrs by Annexin V-FITC/propidium iodide staining based flow cytometry (reference value: 92.7%); assay type: functional; details: read-out: Activity
[32] = system: MV4-11; experiment: Induction of apoptosis in human MV4-11 cells assessed as early apoptotic cells at 2 uM measured after 24 hrs by Annexin V-FITC/propidium iodide staining based flow cytometry (reference value: 5.2%); assay type: functional
[33] = system: MV4-11; experiment: Induction of apoptosis in human MV4-11 cells assessed as late apoptotic cells at 2 uM measured after 24 hrs by Annexin V-FITC/propidium iodide staining based flow cytometry (reference value: 2%); assay type: functional
[34] = system: MV4-11; experiment: Induction of apoptosis in human MV4-11 cells assessed as necrotic cells at 2 uM measured after 24 hrs by Annexin V-FITC/propidium iodide staining based flow cytometry (reference value: 0.2%); assay type: functional
[35] = system: MV4-11; experiment: Induction of apoptosis in human MV4-11 cells assessed as early apoptotic cells at 5 uM measured after 24 hrs by Annexin V-FITC/propidium iodide staining based flow cytometry (reference value: 5.2%); assay type: functional
[36] = system: MV4-11; experiment: Induction of apoptosis in human MV4-11 cells assessed as late apoptotic cells at 5 uM measured after 24 hrs by Annexin V-FITC/propidium iodide staining based flow cytometry (reference value: 2%); assay type: functional
[37] = system: MV4-11; experiment: Induction of apoptosis in human MV4-11 cells assessed as necrotic cells at 5 uM measured after 24 hrs by Annexin V-FITC/propidium iodide staining based flow cytometry (reference value: 0.2%); assay type: functional
[38] = system: MV4-11; experiment: Induction of mitochondrial membrane potential loss in human MV4-11 cells measured after 24 hrs by JC-1 staining based flow cytometry; assay type: functional, cell-based; details: dose 0.2-10 µM
[39] = system: MV4-11; experiment: Induction of mitochondrial membrane potential loss in human MV4-11 cells assessed as cells with high MMP (aggregates) at 2 uM measured after 24 hrs by JC-1 staining based flow cytometry (reference value: 97%); assay type: functional
[40] = system: MV4-11; experiment: Induction of mitochondrial membrane potential loss in human MV4-11 cells assessed as cells with low MMP (monomers) at 2 uM measured after 24 hrs by JC-1 staining based flow cytometry (reference value: 2.9%); assay type: functional
[41] = system: MV4-11; experiment: Induction of mitochondrial membrane potential loss in human MV4-11 cells assessed as cells with high MMP (aggregates) at 10 uM measured after 24 hrs by JC-1 staining based flow cytometry (reference value: 97%); assay type: functional
[42] = system: MV4-11; experiment: Induction of mitochondrial membrane potential loss in human MV4-11 cells assessed as cells with low MMP (monomers) at 10 uM measured after 24 hrs by JC-1 staining based flow cytometry (reference value: 2.9%); assay type: functional

Chain of Mast/stem cell growth factor receptor Kit (P10721 whole entry): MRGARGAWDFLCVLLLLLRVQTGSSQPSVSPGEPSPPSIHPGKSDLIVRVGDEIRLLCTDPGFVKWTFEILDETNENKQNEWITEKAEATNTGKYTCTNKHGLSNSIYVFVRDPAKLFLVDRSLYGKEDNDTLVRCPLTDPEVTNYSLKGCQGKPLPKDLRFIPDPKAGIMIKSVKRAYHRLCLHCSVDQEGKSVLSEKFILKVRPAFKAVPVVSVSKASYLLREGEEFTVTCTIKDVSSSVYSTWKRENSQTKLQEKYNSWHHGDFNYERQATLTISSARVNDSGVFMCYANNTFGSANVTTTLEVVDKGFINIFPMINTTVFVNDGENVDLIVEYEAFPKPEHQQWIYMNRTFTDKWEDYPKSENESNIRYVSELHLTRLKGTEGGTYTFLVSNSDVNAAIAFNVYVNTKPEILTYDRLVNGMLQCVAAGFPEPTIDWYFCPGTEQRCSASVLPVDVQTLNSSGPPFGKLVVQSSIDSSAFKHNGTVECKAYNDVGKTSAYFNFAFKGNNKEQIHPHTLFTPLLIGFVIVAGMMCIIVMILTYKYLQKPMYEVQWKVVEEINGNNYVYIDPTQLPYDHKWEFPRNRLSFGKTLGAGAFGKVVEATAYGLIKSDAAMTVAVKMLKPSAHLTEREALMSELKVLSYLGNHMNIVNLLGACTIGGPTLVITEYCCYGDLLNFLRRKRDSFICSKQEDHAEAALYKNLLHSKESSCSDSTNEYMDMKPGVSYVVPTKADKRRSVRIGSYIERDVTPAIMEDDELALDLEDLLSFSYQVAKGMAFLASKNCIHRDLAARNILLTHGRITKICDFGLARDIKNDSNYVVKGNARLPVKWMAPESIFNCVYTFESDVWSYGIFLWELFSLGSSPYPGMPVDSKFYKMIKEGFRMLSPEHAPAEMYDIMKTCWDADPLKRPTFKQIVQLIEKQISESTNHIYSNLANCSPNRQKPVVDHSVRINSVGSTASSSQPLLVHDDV
Chain of c-Kit (P10721 whole entry): as above

N#Cc1cnc(N2CCCC2)nc1Nc1ccc(Oc2ccccc2)cc1
IC50 [1]: 30.9 µM
IC50 [2]: > 50 µM
IC50 [3]: > 50 µM

CN1CCC(Nc2nc(Nc3ccc(Oc4ccccc4)cc3)c3ccccc3n2)CC1
IC50 [1]: 5.13 µM
IC50 [2]: 4.05 µM
IC50 [3]: 8.51 µM

NC(=O)c1cnc(NC2CCCC2)nc1Nc1ccc(Oc2ccccc2)cc1
IC50 [1]: 7.68 µM
IC50 [2]: 20 µM
IC50 [3]: 23.3 µM

CCOC(=O)c1c(C)nc(NC2CCN(C)CC2)nc1Nc1ccc(Oc2ccccc2)cc1
IC50 [1]: 5.36 µM
IC50 [2]: 7.86 µM
IC50 [3]: 1.35 µM

CN1CCC(N(C)c2ncc(C#N)c(Nc3ccc(Oc4ccccc4)cc3)n2)CC1
IC50 [1]: 2.09 µM
IC50 [2]: 12.5 µM
IC50 [3]: 5.99 µM

CC(=O)N1CCC(Nc2nc(Nc3ccc(Oc4ccccc4)cc3)c3ccccc3n2)CC1
IC50 [1]: 6.96 µM
IC50 [2]: 9.87 µM
IC50 [3]: 24.2 µM

CN1CCC(Nc2ncc(C#N)c(Nc3ccc(Oc4ccccc4)cc3)n2)CC1
IC50 [1]: 12.5 µM
IC50 [2]: > 50 µM
IC50 [3]: 8.99 µM

CC(C)N1CCC(Nc2ncc(C#N)c(Nc3ccc(Oc4ccccc4)cc3)n2)CC1
IC50 [1]: 7.19 µM
IC50 [2]: > 50 µM
IC50 [3]: > 50 µM

CN1CCC(Nc2nc(Nc3ccc(Oc4ccccc4)cc3)c3c(=O)[nH]cc(Br)c3n2)CC1 [DENFIVONTINIB]
Activity [4]: 89.36%
Activity [5]: 4.11%
Activity [6]: 6.52%
viability at 0.2 µM [7]: 15.8%
Activity [8]: 49.6%
Activity [9]: 33.9%
Activity [10]: 0.7%
Activity [11]: 85.1%
Activity [12]: 14.6%
Activity [13]: Non-toxic
Activity [14]: Non-toxic
Activity [15]: Non-toxic
Activity [16]: Non-toxic
IC50 [17]: 0.0038 µM
IC50 [1]: 0.003 µM
IC50 [2]: 0.14 µM
IC50 [3]: 3.13 µM
IC50 [18]: 9.67 µM

CN1CCC(Nc2ncc(C(N)=O)c(Nc3ccc(Oc4ccccc4)cc3)n2)CC1
IC50 [1]: 2.09 µM
IC50 [2]: 2.88 µM
IC50 [3]: 1.9 µM

CN1CCC(N(C)c2ncc(C(N)=O)c(Nc3ccc(Oc4ccccc4)cc3)n2)CC1
IC50 [1]: 0.66 µM
IC50 [2]: 7.67 µM
IC50 [3]: 3.93 µM

CCNC(=O)c1c(C)nc(NC2CCN(C)CC2)nc1Nc1ccc(Oc2ccccc2)cc1
IC50 [1]: 5.03 µM
IC50 [2]: 20 µM
IC50 [3]: 23.4 µM

CC(C)N1CCC(Nc2ncc(C(N)=O)c(Nc3ccc(Oc4ccccc4)cc3)n2)CC1
Activity [19]: Dose-dependent-effect
inhibition at 100 µM [20]: 17.5%
Activity [4]: 75.47%
Activity [5]: 4.45%
Activity [6]: 20.08%
Activity [21]: 82.96%
Activity [22]: 5.41%
Activity [23]: 11.9%
Activity [24]: 89.91%
Activity [25]: 5.7%
Activity [26]: 4.39%
Activity [27]: Active
Activity [28]: Active
Activity [29]: Dose-dependent-effect
viability at 0.2 µM [7]: 78.5%
Activity [8]: 15.1%
Activity [9]: 6%
Activity [10]: 0.3%
viability at 2 µM [30]: 32.8%
viability at 5 µM [31]: 11.7%
Activity [32]: 50.5%
Activity [33]: 16.4%
Activity [34]: 0.3%
Activity [35]: 51.7%
Activity [36]: 35.8%
Activity [37]: 0.8%
Activity [38]: Dose-dependent-effect
Activity [11]: 96.2%
Activity [12]: 3.8%
Activity [39]: 94.9%
Activity [40]: 5%
Activity [41]: 86.6%
Activity [42]: 13.1%
IC50 [17]: > 100 µM
IC50 [1]: 0.59 µM
IC50 [2]: 7.73 µM
IC50 [3]: 3.14 µM
IC50 [18]: 40.2 µM

Cc1nc(NC2CCN(C)CC2)nc(Nc2ccc(Oc3ccccc3)cc2)c1C(=O)O
IC50 [1]: > 50 µM
IC50 [2]: > 50 µM
IC50 [3]: > 50 µM

N#Cc1cnc(NC2CCCC2)nc1Nc1ccc(Oc2ccccc2)cc1
IC50 [1]: 35.2 µM
IC50 [2]: > 50 µM
IC50 [3]: > 50 µM

NC(=O)c1cnc(N2CCCC2)nc1Nc1ccc(Oc2ccccc2)cc1
IC50 [1]: 35.8 µM
IC50 [2]: 10.6 µM
IC50 [3]: > 50 µM
